Reference: US5210193A, “Piperazine derivatives” (American Cyanamid Company, priority 1990, dated 1993)
≈ marks a conversion by molar mass, not a printed value. Like-named read-outs stand apart in the source and are kept apart here.

How the values were obtained:
Assay in all cases: in vitro antibacterial MIC, agar plate dilution
Type in all cases: cell-based
Citrobacter div. K 82-24 = conditions: Citrobacter, DIV.K8224, 18 h, 35° C., read-out: MIC
Outline: (§1)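 Agar plate dilution on Mueller-Hinton agar, inoculum approximately 10^4 CFU per organism applied with a Steers replicator. MIC (mcg/ml) is the lowest compound concentration inhibiting visible growth after 18 hours at 35° C.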

[1] = system: Enterobacter cloacae K 84-10; conditions: Enterobacter cloacae, K8410, 18 h, 35° C., read-out: MIC
Outline: as §1

[2] = system: Enterobacter cloacae VGH 84-39; conditions: Enterobacter cloacae, VGH8439, 18 h, 35° C., read-out: MIC
Outline: as §1

[3] = system: Escherichia coli CMC 84-11; conditions: Escherichia coli, CMC8411, 18 h, 35° C., read-out: MIC
Outline: as §1

[4] = system: Escherichia coli CMC 84-50; conditions: Escherichia coli, CMC8450, 18 h, 35° C., read-out: MIC
Outline: as §1

Escherichia coli LL 311 = conditions: Escherichia coli, LL311, 18 h, 35° C., read-out: MIC
Outline: as §1

[5] = system: Escherichia coli MOR 84-20; conditions: Escherichia coli, MOR8420, 18 h, 35° C., read-out: MIC
Outline: as §1

[6] = system: Klebsiella pneumoniae CMC 84-31; conditions: Klebsiella pneumoniae, CMC8431, 18 h, 35° C., read-out: MIC
Outline: as §1

[7] = system: Klebsiella pneumoniae IO 83-5; conditions: Klebsiella pneumoniae, IO835, 18 h, 35° C., read-out: MIC
Outline: as §1

[8] = system: Klebsiella pneumoniae MOR 84-24; conditions: Klebsiella pneumoniae, MOR8424, 18 h, 35° C., read-out: MIC
Outline: as §1

[9] = system: Morganella morganii CMC 84-37; conditions: Morganella morganii, CMC8437, 18 h, 35° C., read-out: MIC
Outline: as §1

[10] = system: Morganella morganii CMC 84-38; conditions: Morganella morganii, CMC8438, 18 h, 35° C., read-out: MIC
Outline: as §1

[11] = system: Proteus rettgeri CMC 84-41; conditions: Providencia rettgeri, CMC8441, 18 h, 35° C., read-out: MIC
Outline: as §1

[12] = system: Proteus rettgeri IO 83-21; conditions: Providencia rettgeri, IO8321, 18 h, 35° C., read-out: MIC
Outline: as §1

[13] = system: Pseudomonas aeruginosa K 84-16; conditions: Pseudomonas aeruginosa, K8416, 18 h, 35° C., read-out: MIC
Outline: as §1

[14] = system: Pseudomonas aeruginosa LL-1244; conditions: Pseudomonas aeruginosa, LL1244, 18 h, 35° C., read-out: MIC
Outline: as §1

[15] = system: Pseudomonas aeruginosa VGH 84-3; conditions: Pseudomonas aeruginosa, VGH843, 18 h, 35° C., read-out: MIC
Outline: as §1

[16] = system: Pseudomonas aeruginosa VGH 84-4; conditions: Pseudomonas aeruginosa, VGH844, 18 h, 35° C., read-out: MIC
Outline: as §1

[17] = system: Serratia marcescens CMC 83-74; conditions: Serratia marcescens, CMC8374, 18 h, 35° C., read-out: MIC
Outline: as §1

[18] = system: Serratia marcescens MOR 84-41; conditions: Serratia marcescens, MOR8441, 18 h, 35° C., read-out: MIC
Outline: as §1

[19] = system: Serratia marcescens VGH 84-30; conditions: Serratia marcescens, VGH8430, 18 h, 35° C., read-out: MIC
Outline: as §1

[20] = system: Staphylococcus aureus ATTC 29213; conditions: 35° C.
Outline: as §1

[21] = system: Staphylococcus aureus CMC 83-131; conditions: Staphylococcus aureus, CMC83131, 18 h, 35° C., read-out: MIC
Outline: as §1

[22] = system: Staphylococcus aureus K 82-26; conditions: Staphylococcus aureus, K8226, 18 h, 35° C., read-out: MIC
Outline: as §1

[23] = system: Staphylococcus aureus VGH 84-45; conditions: Staphylococcus aureus, VGH8445, 18 h, 35° C., read-out: MIC
Outline: as §1

[24] = system: Staphylococcus aureus VGH 84-47; conditions: Staphylococcus aureus, VGH8447, 18 h, 35° C., read-out: MIC
Outline: as §1

[25] = system: Streptococcus faecalis UCI 85-19; conditions: Enterococcus faecalis, UCI8519, 18 h, 35° C., read-out: MIC
Outline: as §1

[26] = system: Streptococcus faecalis UCI 85-30; conditions: Enterococcus faecalis, UCI8530, 18 h, 35° C., read-out: MIC
Outline: as §1

[27] = system: Streptococcus faecalis VGH 84-65; conditions: Enterococcus faecalis, VGH8465, 18 h, 35° C., read-out: MIC
Outline: as §1

[28] = system: Streptococcus faecalis VGH 84-69; conditions: Enterococcus faecalis, VGH8469, 18 h, 35° C., read-out: MIC
Outline: as §1

[29] = system: Escherichia coli ATCC 25922; conditions: 35° C.
Outline: as §1

[30] = Staphylococcus aureus, ATTC29213, 18 h, read-out: MIC

MIC (Citrobacter div. K 82-24)	MIC [1]	MIC [2]	MIC [3]	MIC [4]	MIC (Escherichia coli LL 311)	MIC [5]	MIC [6]	MIC [7]	MIC [8]	MIC [9]	MIC [10]	MIC [11]	MIC [12]	MIC [13]	MIC [14]	MIC [15]	MIC [16]	MIC [17]	MIC [18]	SMILES	further results
0.25 µg/mL (≈ 0.629 µM)	0.25 µg/mL (≈ 0.629 µM)	0.5 µg/mL (≈ 1.26 µM)	0.06 µg/mL (≈ 0.151 µM)	0.25 µg/mL (≈ 0.629 µM)	0.12 µg/mL (≈ 0.302 µM)	0.25 µg/mL (≈ 0.629 µM)	0.25 µg/mL (≈ 0.629 µM)	1 µg/mL (≈ 2.52 µM)	1 µg/mL (≈ 2.52 µM)	1 µg/mL (≈ 2.52 µM)	0.5 µg/mL (≈ 1.26 µM)	0.5 µg/mL (≈ 1.26 µM)	1 µg/mL (≈ 2.52 µM)	> 16 µg/mL	16 µg/mL (≈ 40.3 µM)	> 16 µg/mL	8 µg/mL (≈ 20.1 µM)	> 16 µg/mL	1 µg/mL (≈ 2.52 µM)	O=C(O)c1cn(C2CC2)c2cc(N3CCNC(c4cc[nH]n4)C3)c(F)cc2c1=O (centres unmarked) [Example 121, 1-Cyclopropyl-6-fluoro-1,4-dihydro-4-oxo-7-[3-(1H-pyrazol-3-yl)-1-piperazinyl]-3-quinolinecarboxylic acid]	MIC [19]: 32 µg/mL (≈ 80.5 µM); MIC ([20]; 18 hours): 2 µg/mL (≈ 5.03 µM); MIC [20, 30]: 1 µg/mL (≈ 2.52 µM); MIC [21]: 2 µg/mL (≈ 5.03 µM); MIC [22]: 1 µg/mL (≈ 2.52 µM); MIC [23]: 0.5 µg/mL (≈ 1.26 µM); MIC [24]: 1 µg/mL (≈ 2.52 µM); MIC [25]: 2 µg/mL (≈ 5.03 µM); MIC [26]: 2 µg/mL (≈ 5.03 µM); MIC [27]: 2 µg/mL (≈ 5.03 µM); MIC [28]: 2 µg/mL (≈ 5.03 µM)
2 µg/mL (≈ 5.05 µM)	1 µg/mL (≈ 2.52 µM)	2 µg/mL (≈ 5.05 µM)	0.25 µg/mL (≈ 0.631 µM)	2 µg/mL (≈ 5.05 µM)	0.25 µg/mL (≈ 0.631 µM)	1 µg/mL (≈ 2.52 µM)	4 µg/mL (≈ 10.1 µM)	2 µg/mL (≈ 5.05 µM)	4 µg/mL (≈ 10.1 µM)	0.25 µg/mL (≈ 0.631 µM)	1 µg/mL (≈ 2.52 µM)	0.25 µg/mL (≈ 0.631 µM)	4 µg/mL (≈ 10.1 µM)	> 16 µg/mL	32 µg/mL (≈ 80.7 µM)	> 16 µg/mL	32 µg/mL (≈ 80.7 µM)	> 16 µg/mL	4 µg/mL (≈ 10.1 µM)	CCn1cc(C(=O)O)c(=O)c2cc(F)c(N3CCNC(c4cccnc4)C3)cc21 (centres unmarked) [Example 122]	MIC [19]: 32 µg/mL (≈ 80.7 µM); MIC ([20]; 18 hours): 1 µg/mL (≈ 2.52 µM); MIC [20, 30]: 0.5 µg/mL (≈ 1.26 µM); MIC [21]: 8 µg/mL (≈ 20.2 µM); MIC [22]: 1 µg/mL (≈ 2.52 µM); MIC [23]: 0.25 µg/mL (≈ 0.631 µM); MIC [24]: 1 µg/mL (≈ 2.52 µM); MIC [25]: 4 µg/mL (≈ 10.1 µM); MIC [26]: 8 µg/mL (≈ 20.2 µM); MIC [27]: 8 µg/mL (≈ 20.2 µM); MIC [28]: 8 µg/mL (≈ 20.2 µM)
0.25 µg/mL (≈ 0.649 µM)	0.06 µg/mL (≈ 0.156 µM)	0.5 µg/mL (≈ 1.3 µM)	0.06 µg/mL (≈ 0.156 µM)	0.25 µg/mL (≈ 0.649 µM)	0.06 µg/mL (≈ 0.156 µM)	0.25 µg/mL (≈ 0.649 µM)	0.25 µg/mL (≈ 0.649 µM)	0.5 µg/mL (≈ 1.3 µM)	0.5 µg/mL (≈ 1.3 µM)	0.25 µg/mL (≈ 0.649 µM)	0.5 µg/mL (≈ 1.3 µM)	0.25 µg/mL (≈ 0.649 µM)	1 µg/mL (≈ 2.59 µM)	16 µg/mL (≈ 41.5 µM)	16 µg/mL (≈ 41.5 µM)	> 16 µg/mL	8 µg/mL (≈ 20.8 µM)	> 16 µg/mL	1 µg/mL (≈ 2.59 µM)	CN1CCN(c2cc3c(cc2F)c(=O)c(C(=O)O)cn3C2CC2)CC1C1CC1 (centres unmarked) [Example 125, 1-Cyclopropyl-7-(3-cyclopropyl-4-methyl-1-piperazinyl) -6-fluoro-1,4-dihydro-4-oxo-3-quinolinecarboxylic acid]	MIC ([29]; 18 hours): 0.06 µg/mL (≈ 0.156 µM); MIC ([29]; Escherichia coli, ATCC25922, 18 h, read-out: MIC): 0.03 µg/mL (≈ 0.0778 µM); MIC [19]: 8 µg/mL (≈ 20.8 µM); MIC ([20]; 18 hours): 0.5 µg/mL (≈ 1.3 µM); MIC [20, 30]: 0.25 µg/mL (≈ 0.649 µM); MIC [21]: 1 µg/mL (≈ 2.59 µM); MIC [22]: 4 µg/mL (≈ 10.4 µM); MIC [23]: 0.12 µg/mL (≈ 0.311 µM); MIC [24]: 0.5 µg/mL (≈ 1.3 µM); MIC [25]: 4 µg/mL (≈ 10.4 µM); MIC [26]: 8 µg/mL (≈ 20.8 µM); MIC [27]: 4 µg/mL (≈ 10.4 µM); MIC [28]: 4 µg/mL (≈ 10.4 µM)
